{
  "source": "patent US20230167150A1",
  "about": "“CD33 LIGANDS SUITABLE FOR INCORPORATION INTO CARRIERS” (GLYCOMIMETICS, INC., priority 2020, published 2023)",
  "biological_target": "T1, CD33 (Homo sapiens, UniProt P20138)",
  "T1 construct": "purchased BioLegend 750106",
  "T1 sequence (P20138 18-364)": "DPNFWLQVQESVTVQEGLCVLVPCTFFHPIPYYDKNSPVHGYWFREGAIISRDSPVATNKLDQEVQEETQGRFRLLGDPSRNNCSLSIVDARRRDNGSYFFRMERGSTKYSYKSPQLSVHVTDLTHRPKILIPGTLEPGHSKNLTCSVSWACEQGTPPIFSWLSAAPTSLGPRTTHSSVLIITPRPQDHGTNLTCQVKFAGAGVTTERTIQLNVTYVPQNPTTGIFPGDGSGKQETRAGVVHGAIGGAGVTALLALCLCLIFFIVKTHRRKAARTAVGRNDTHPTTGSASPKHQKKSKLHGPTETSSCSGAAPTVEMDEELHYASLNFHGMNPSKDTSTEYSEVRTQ",
  "assay": "CD33 activity competitive binding assay (ELISA)",
  "details": "immobilized CD33-Fc; competition with Neu5Acα2-3Galβ1-3GalNAc-PAA-biotin; streptavidin/horseradish peroxidase, TMB, absorbance 450 nm",
  "experimental": "The assay to screen for and characterize glycomimetic ligands of CD33 is a competitive binding assay, which allows the determination of IC50 values. CD33-Fc (BioLegend catalog item 750106) was immobilized in 96 well microtiter plates by incubation at 4° C. overnight. To reduce non-specific binding, bovine serum albumin was added to each well and incubated at room temperature for 3 hours. The plate was washed and serial dilutions of the test compounds were added to the wells in the presence of biotinylated polyacrylamide conjugated with Neu5Acα2-3Galβ1-3GalNAc-PAA-biotin (GlycoTech catalog item 01-088). After incubation at room temperature for 2 hours and washing, streptavidin/horseradish peroxidase was added to each well and incubated at room temperature for 30 minutes followed by an additional wash.\nTo determine the amount of glycopolymer bound to the immobilized CD33, the peroxidase substrate […] tetramethylbenzidine (TMB) was added. After 5 minutes, the enzyme reaction was stopped by the addition of H3PO4, and the absorbance of light at a wavelength of 450 nm was determined. The concentration of test compound required to inhibit binding by 50% was determined and reported as the IC50 value.",
  "data": [
    {"smiles": "Cc1cc(C(=O)NC[C@@H](O)[C@@H](O)C2O[C@@](OCCCN(Cc3ccccc3)C(=O)CCOCCOCCOCCOCCOCCOCCN=[N+]=[N-])(C(=O)O)CC(O)[C@H]2NC(=O)Cn2cc(C3CCCCC3)nn2)cc(C)c1O", "note": "(some centres unmarked) [Compound 13]", "values": [
      {"measurement": "IC50", "value": 54, "unit": "µM"}
    ]},
    {"smiles": "Cc1cc(C(=O)NC[C@@H](O)[C@@H](O)C2O[C@@](OCCCN(CCc3ccccc3)C(=O)CCOCCOCCOCCOCCOCCOCCN=[N+]=[N-])(C(=O)O)CC(O)[C@H]2NC(=O)Cn2cc(C3CCCCC3)nn2)cc(C)c1O", "note": "(some centres unmarked) [Compound 15]", "values": [
      {"measurement": "IC50", "value": 27, "unit": "µM"}
    ]}
  ]
}
